One may read the AC50 as the concentration giving half of the maximal activity seen.

Each structure is given as a SMILES string. Activity calls are given as the source filed them.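 The calls were made as follows: active = AC50 no more than tenfold above the top dose tested, or full inhibition at every dose with a flat fit (cut at about 19 µM in these data); inconclusive = flat curve fit with inhibition between 30% and 70%, or poor fit; inactive = AC50 more than tenfold above the top dose tested.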

The assay has as its system HMLE_sh_eGFP viability, CellTiter-Glo luminescence, 72 h. The assay is described as follows: viability loss of HMLE_sh_eGFP cells – cell-based, luminescence, counter-screen for HMLE_sh_ECad selective toxicity project, dose response (AID 463074).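 Also: counterscreen control line to flag general toxicity for the HMLE_sh_ECad screen; potency for loss of viability as luminescence drops below DMSO wells.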 For orientation: Counterscreens check selectivity or assay interference.
As to `CN(C)N1C(N)=C(C#N)C(c2cccc3ccccc23)C2=C1CC(c1ccccc1)CC2=O` (stereo not drawn), the concentration at half-maximal activity (AC50) is 1.02 µM. As for `Clc1cccc(Nc2nc(-c3ccncc3)cs2)c1`, the figure is 5.03 µM. As for `CCOC(=O)/C=C/C(=O)Nc1cccc([N+](=O)[O-])c1`, the AC50 is 8.97 µM. Turning to `C/C(=C\c1ccc(C(=O)O)cc1)c1ccc2c(c1)C(C)(C)CCC2(C)C`, the AC50 is 3.7 µM. Consider `S=C(Nc1ccccc1)Nc1nc2ccccc2n1CCOc1ccc(Br)cc1`, for which the AC50 was 14 µM. With `CCOC(=O)c1ccc(NC(=O)c2nc[nH]c2C(=O)NCCNC(=O)c2[nH]cnc2C(=O)Nc2ccc(C(=O)OCC)cc2)cc1`, the AC50 is 0.624 µM. For the molecule `CC/C(=N/NC(=O)c1ccccc1O)c1c(C)[nH]n(-c2ccccc2)c1=O`, the AC50 was 5.25 µM. Then `CCN1CCN(CCCNC(=O)c2ccc(/C=C3/Sc4ccccc4N(Cc4ccccc4F)C3=O)cc2)CC1`, with 3.14 µM. With `Cc1cc(=O)[nH]c(N/N=C/c2ccccn2)n1`, the AC50 was 1.53 µM. Then `O=[N+]([O-])c1cc(S(=O)(=O)N2CCCCCC2)ccc1F`, with 3.66 µM. As for `COc1ccc(-c2sc3ccccc3c2-c2ccc(OCCN3CCCCC3)cc2)cc1`, the figure is 1.4 µM.

For the molecule `COc1ccc(CCn2c(C3CCCCC3)nc3c(c(=O)c4ccccc4n3C)c2=O)cc1`, the concentration at half-maximal activity (AC50) is 5.17 µM. For `COc1ccccc1C(CCNCc1ccc(N(C)C)cc1)c1ccc(OC(C)C)cc1` (stereo not drawn), the AC50 was 3.58 µM. As to `Cc1cc(C)c2[nH]c(=O)c(CN(Cc3cccs3)C(=S)NCc3ccco3)cc2c1`, the AC50 is > 19.5 µM (inactive). `Oc1c(Cl)cc(Cl)cc1CNc1ccc(Br)cn1`: the AC50 was 3.68 µM. Then `COC(=O)c1cccc(NC(=O)Nc2ccc(Cl)c(Cl)c2)c1`, with 11.4 µM; and `COc1cc(/C=N/O)cc(Br)c1OCc1cccc(Cl)c1`, with 6.68 µM. As for `CC(=O)Nc1ccc(-c2csc(NC(=O)Cc3ccccc3F)n2)cc1`, the figure is 11.5 µM.

`O=C(Nc1ccc(Br)cn1)c1cccc(-c2cc3ccccc3oc2=O)c1`: the half-maximal activity concentration (AC50) was 12.3 µM.

Take `Fc1cccc(-c2cc3nc4c(c(NCc5ccco5)n3n2)CCCC4)c1`: the AC50 is 7.77 µM. For the molecule `CCCc1cc(-c2nc(-c3ccc(C)cc3)cs2)ccn1`, the concentration at half-maximal activity (AC50) was 5.16 µM. Take `Cc1ccc2nc(-c3cccc(-c4cccc(Cl)c4)c3)c(NCc3ccccc3)n2c1`: the AC50 is 3.17 µM. Then `O=C(Nc1ccc2c(c1)OCCO2)c1cccc2nc3ccccc3nc12`, with 3.18 µM; and `CC(C)CN=C(NS(=O)(=O)c1ccccc1)C(Cl)(Cl)Cl`, with 3.27 µM; and `Cc1sc(NC(=O)C2CCCCC2)c(C#N)c1-c1ccccc1`, with > 19.5 µM (inactive). Take `CC(C)=CCOc1ccc([C@@H]2COc3c(ccc4c3C=CC(C)(C)O4)C2)c(O)c1`: the AC50 was 3.04 µM. On to `CCCCCc1cc(=O)oc2c(C(CCN(CC)CC)c3cc(OC)c(OC)c(OC)c3)c(OC)cc(OC)c12` (stereo not drawn), for which the half-maximal activity concentration (AC50) is 14.3 µM. Turning to `Cc1cccc(N/N=C/c2ccccc2O)c1`, the AC50 is 18.6 µM. As for `Cc1ccc(C)c(NC(=O)CSc2nc3nc(-c4cccs4)cc(C(F)(F)F)c3c(=O)[nH]2)c1`, the figure is 4.39 µM. For `CCCCOc1ccc(C(=O)C(CN2CCOCC2)c2ccccc2)cc1` (stereo not drawn), the AC50 was 6.76 µM. Turning to `Cc1ccc(Cl)cc1N1CCN(CC(=O)NC2CCCc3ccccc32)CC1` (stereo not drawn), the AC50 was 6.66 µM. For `Nc1c(S(=O)(=O)c2cccs2)c2nc3ccccc3nc2n1/N=C/c1cccc(O)c1`, the AC50 was 3.87 µM.

Turning to `Clc1ccccc1Cn1c(/C=C/c2ccco2)nc2ccccc21`, the AC50 is 2.19 µM. On to `CC(=O)NC(c1ccccc1)c1cc([N+](=O)[O-])c2cccnc2c1O` (stereo not drawn), for which the AC50 is 4.02 µM.

As for `CCC(C)NCCOc1ccc(C(C)(C)c2ccccc2)cc1` (stereo not drawn), the AC50 was 5.92 µM. Turning to `Cc1cccc2c1NC(=O)/C2=C\C(=O)c1cccs1`, the AC50 was 6.66 µM.

Consider `CC(C)c1ccc(N2C(=O)NC(=O)/C(=C\C=C\c3ccco3)C2=O)cc1`, for which the AC50 was > 19.5 µM (inactive). For the molecule `Clc1ccc(Cl)c(OCCCCN2CCNCC2)c1`, the AC50 was 9.58 µM.

Source of the values: PubChem BioAssay AID463074 (Broad Institute, 2010).
